According to patent publication US20240197761A1, “FUCOSYLATION AND IMMUNE MODULATION IN CANCER” (H. LEE MOFFITT CANCER CENTER AND RESEARCH INSTITUTE, INC., priority 2021, published 2024):

Assays:
SM1 tumors = test: Anti-PD-1 mouse model, SM1: tumor growth and flow cytometric profiling of tumors and draining lymph nodes (Table 2); format: in vivo, C57BL/6 mice
Description: FIGS. 21A and 21B Administration of combination L-fucose and anti-PD-1 suppresses tumors and increases intra-tumoral CD4+T central and effector memory cells (a) Volumetric growth curves for SW1 tumors in C3H/HeN mice (left) and SM1 tumors in C57BL/6 mice (right) fed L-fucose (LF) and treated with PBS (control) or anti-PD-1. (concurrent initiation of LF anti-PD1 (▾)). The tumor growth curves are means±SEM from ≥7 mice per group. (b) Volumetric growth curves for SM1 tumors in C57BL/6 mice fed ±L-fucose (LF) and treated with PBS (control) or anti-PD-1 (PD-1). (concurrent initiation of LF±PD1 (▾)). The tumor growth curves are means±SEM from ≥7 mice per group. *=p<0.05. At Day 7 (prior to administration of LF or PD1), Day 21 (endpoint for tumors of control-treated mice), Day 31 (endpoint for tumors of LF-treated mice), Day 63 (endpoint for tumors of PD1-treated mice), the primary tumors (Tumor) and draining lymph nodes (LN) of 4-5 mice per treatment group were analyzed by flow cytometry for intratumor levels of CD4+ and CD8+T subpopulations (naive/terminal, stem central/central/effector memory) and dendritic cell (DC) subpopulations (cDC1, cDC2, and monocyte-derived DC (moDC)) as in FIG. 15. Proportions of CD4+, CD8+, and DC subpopulations in each organ at each timepoints are represented by the color-coded pie charts (each pie chart represents 4-5 mice). Absolute numbers of the subpopulations per […] of tumor/tissue homogenate at each timepoint are represented in the color-coded column charts.
Tumors of SW1 or SM1 melanoma cells from […] or C57BL/6 mice, respectively) were digested using 1× tumor digest buffer (0.5 mg/mL Collagenase I, 0.5 mg/mL Collagenase IV, 0.25 mg/mL Hyalyronidase V, 0.1 mg/mL DNAse I in HBSS (Millipore Sigma (St. Louis, MO)). Tumors were homogenized using the Miltenyi MACs dissociator. Red blood cells were lysed using ACK lysis buffer (Life Technologies, (Grand Island, NY)). Tumor homogenate cells were counted using a standard hemocytometer.
Total TILs were gated first to single cells (based on forward scatter height vs width, followed by side scatter height vs. width). Live cells were gated from the Zombie negative population from the population above. TILs were gated based on splenocyte size from a control spleen. Individual immune subpopulations were sub-gated from the total TIL population using the following staining criteria: CD3+ for CD3+ T cells; CD3+/CD4+/CD8− for CD4+T cells; CD3+/CD4−/CD8+ for CD8+ T cells, CD11c+/CD11b+ for DCs; either NK1.1 (for C57/BL6 mice) or DX5 (for C3H/HeJ) for NK cells; CD11b+/GR1+ for MDSC-like cells; and F4/80+ for macrophages. Single-cell suspensions from tumor and spleen tissue were stained with Live/Dead Zombie NIR (Biolegend, (San Diego, CA)) at 1:1,000 in PBS for 20 min. Cell suspensions were spun down and stained with the following with antibodies at 0.5 μg/ml per antibody: APC anti-mouse CD3, Pacific Blue anti-mouse CD4, BV785 anti-mouse CD8, PerCP anti-mouse CD25, FITC anti-mouse F4/80, PeCy7 anti-mouse CD11c, PE anti-mouse NK1.1 or PE anti-mouse DX5, and PerCP-Cy5.5 anti-mouse CD11 b. After staining, the cells were washed and fixed (2% formaldehyde), followed by another wash and flow cytometric analysis. The compensation controls were prepared using 0.5 μg/mL of each antibody with UltraComp eBeads, (ThermoFisher Scientific (Waltham, MA)). All samples were subject to flow cytometric profiling using a LSR Flow Cytometer (BD Biosciences (San Jose, CA)) and analysis as indicated using FlowJo software (BD Biosciences (San Jose, CA)).
SW1 or SM1 mouse melanoma cells were injected into syngeneic C3H/HeN female or C57BL/6 male mice, respectively. After approximately 7 days, when the mice tumors reached −150 mm^3, the mice were either supplemented with or without 100 mM L-fucose (Biosynth (Oak Terrace, IL)) via drinking water, which was provided ad libitum. […]

TUBO (mouse BC) = test: TUBO breast cancer growth in immunodeficient mice ± L-fuc; format: in vivo; details: immunodeficient NSG mice ± 500 mM L-fuc (FIG. 3A)
mouse splenic MDSC = test: Splenic MDSC proliferation with L-fuc or 2FF; format: cell-based; details: FIG. 3E

With `C[C@H](O)[C@@H](O)[C@@H](O)[C@H](O)C=O` [L-fucose] the “CD4 central memory, average # of cells” value (SM1 tumors; Day 21, lymph nodes) was 592.12 per 10^6 cells of total tumor, the “CD4 effector memory, average # of cells” value (SM1 tumors; Day 21, lymph nodes) was 1155.12 per 10^6 cells of total tumor and the “CD4 naïve, average # of cells” value (SM1 tumors; Day 21, lymph nodes) was 24832.36 per 10^6 cells of total tumor. For the same compound, the “CD4 stem central memory, average # of cells” value (“CD4 stem central memory” below) (SM1 tumors; Day 21, lymph nodes) was 512.17 per 10^6 cells of total tumor, the “CD8 central memory, average # of cells” value (SM1 tumors; Day 21, lymph nodes) was 1017.54 per 10^6 cells of total tumor and the “CD8 effector memory, average # of cells” value (SM1 tumors; Day 21, lymph nodes) was 4093.80 per 10^6 cells of total tumor. For the same compound, the “CD8 naïve, average # of cells” value (SM1 tumors; Day 21, lymph nodes) was 11896.39 per 10^6 cells of total tumor, the “CD8 stem central memory, average # of cells” value (from here on “CD8 stem central memory”) (SM1 tumors; Day 21, lymph nodes) was 192.89 per 10^6 cells of total tumor and the “cDC1, average # of cells” value (SM1 tumors; Day 21, lymph nodes) was 9395.57 per 10^6 cells of total tumor. The “cDC2, average # of cells” value (SM1 tumors; Day 21, lymph nodes) was 13997.11 per 10^6 cells of total tumor, the “moDC, average # of cells” value (SM1 tumors; Day 21, lymph nodes) was 1788.45 per 10^6 cells of total tumor and the “CD4+ CRTAM+, average # of cells” value (SM1 tumors; Day 21, tumors) was 361.60 per 10^6 cells of total tumor. The “CD4 central memory, average # of cells” value (SM1 tumors; Day 21, tumors) was 19.50 per 10^6 cells of total tumor, the “CD4 effector memory, average # of cells” value (SM1 tumors; Day 21, tumors) was 302.98 per 10^6 cells of total tumor and the “CD4 naïve, average # of cells” value (SM1 tumors; Day 21, tumors) was 186.42 per 10^6 cells of total tumor. For the same compound, the “CD4 stem central memory” value (SM1 tumors; Day 21, tumors) was 3.22 per 10^6 cells of total tumor, the “CD8+ GRZB+, average # of cells” value (SM1 tumors; Day 21, tumors) was 14146.30 per 10^6 cells of total tumor and the “CD8 central memory, average # of cells” value (SM1 tumors; Day 21, tumors) was 25.37 per 10^6 cells of total tumor. For the same compound, the “CD8 effector memory, average # of cells” value (SM1 tumors; Day 21, tumors) was 889.74 per 10^6 cells of total tumor, the “CD8 naïve, average # of cells” value (SM1 tumors; Day 21, tumors) was 81.09 per 10^6 cells of total tumor and the “CD8 stem central memory” value (SM1 tumors; Day 21, tumors) was 1.53 per 10^6 cells of total tumor. The “cDC1, average # of cells” value (SM1 tumors; Day 21, tumors) was 2032.24 per 10^6 cells of total tumor, the “cDC2, average # of cells” value (SM1 tumors; Day 21, tumors) was 12762.45 per 10^6 cells of total tumor and the “moDC, average # of cells” value (SM1 tumors; Day 21, tumors) was 570.99 per 10^6 cells of total tumor. The “CD4 central memory, average # of cells” value (SM1 tumors; Day 31, lymph nodes) was 424.67 per 10^6 cells of total tumor, the “CD4 effector memory, average # of cells” value (SM1 tumors; Day 31, lymph nodes) was 6638.79 per 10^6 cells of total tumor and the “CD4 naïve, average # of cells” value (SM1 tumors; Day 31, lymph nodes) was 30715.03 per 10^6 cells of total tumor. For the same compound, the “CD4 stem central memory” value (SM1 tumors; Day 31, lymph nodes) was 408.72 per 10^6 cells of total tumor, the “CD8 central memory, average # of cells” value (SM1 tumors; Day 31, lymph nodes) was 286.54 per 10^6 cells of total tumor and the “CD8 effector memory, average # of cells” value (SM1 tumors; Day 31, lymph nodes) was 2478.29 per 10^6 cells of total tumor. The “CD8 naïve, average # of cells” value (SM1 tumors; Day 31, lymph nodes) was 12415.41 per 10^6 cells of total tumor, the “CD8 stem central memory” value (SM1 tumors; Day 31, lymph nodes) was 56.84 per 10^6 cells of total tumor and the “cDC1, average # of cells” value (SM1 tumors; Day 31, lymph nodes) was 5781.73 per 10^6 cells of total tumor. The “cDC2, average # of cells” value (SM1 tumors; Day 31, lymph nodes) was 22628.85 per 10^6 cells of total tumor, the “moDC, average # of cells” value (SM1 tumors; Day 31, lymph nodes) was 7315.56 per 10^6 cells of total tumor and the “CD4+ CRTAM+, average # of cells” value (SM1 tumors; Day 31, tumors) was 112.92 per 10^6 cells of total tumor. The “CD4 central memory, average # of cells” value (SM1 tumors; Day 31, tumors) was 28.68 per 10^6 cells of total tumor, the “CD4 effector memory, average # of cells” value (SM1 tumors; Day 31, tumors) was 297.82 per 10^6 cells of total tumor and the “CD4 naïve, average # of cells” value (SM1 tumors; Day 31, tumors) was 401.23 per 10^6 cells of total tumor. For the same compound, the “CD4 stem central memory” value (SM1 tumors; Day 31, tumors) was 6.29 per 10^6 cells of total tumor, the “CD8+ GRZB+, average # of cells” value (SM1 tumors; Day 31, tumors) was 5679.05 per 10^6 cells of total tumor and the “CD8 central memory, average # of cells” value (SM1 tumors; Day 31, tumors) was 26.40 per 10^6 cells of total tumor. The “CD8 effector memory, average # of cells” value (SM1 tumors; Day 31, tumors) was 202.98 per 10^6 cells of total tumor, the “CD8 naïve, average # of cells” value (SM1 tumors; Day 31, tumors) was 223.96 per 10^6 cells of total tumor and the “CD8 stem central memory” value (SM1 tumors; Day 31, tumors) was 3.15 per 10^6 cells of total tumor. For the same compound, the “cDC1, average # of cells” value (SM1 tumors; Day 31, tumors) was 200.82 per 10^6 cells of total tumor, the “cDC2, average # of cells” value (SM1 tumors; Day 31, tumors) was 5753.01 per 10^6 cells of total tumor and the “moDC, average # of cells” value (SM1 tumors; Day 31, tumors) was 1107.62 per 10^6 cells of total tumor. For the same compound, the “intratumoral CD4+T central and effector memory cells” value (SM1 tumors; L-fuc alone (FIG. 21b)) was “increased”, the “tumor suppression in combination with anti-PD1” value (SM1 tumors; SM1 model) was “augmented durable suppression” and the “tumor suppression, single agent” value (SM1 tumors; SM1 model (FIG. 21a right)) was “less tumor suppressive than anti-PD1 alone”. The TUBO tumor growth (TUBO (mouse BC)) was “not effected”, the “MDSC proliferation / MDSC populations” value (mouse splenic MDSC) was “increased” and the “MDSC proliferation / MDSC populations” value (mouse splenic MDSC; listed as L-fuc) was “increases”.
